US4634706A, “Griseolic acid derivatives, and their use as enzyme inhibitors” (Sankyo Company Limited, priority 1983, dated 1987)

How the values were obtained:
[1] = system: righting reflex and spontaneous locomotive activity; test: Brain concussive test; assay type: in vivo; conditions: 10 mg/kg intraperitoneally, 17 mice
Protocol: The test compound, suspended in an aqueous solution of carboxymethylcellulose, was administered intraperitoneally to mice. After 30 minutes, a 16 g weight was dropped from a height of 50 cm onto the head of each mouse, and the time was measured for each mouse to recover its righting reflex and spontaneous locomotive activity.
A similar experiment was carried out as a control, using the carboxymethylcellulose solution without any active compound.
The results are reported in Table 6 as the mean time (in seconds) plus or minus the statistical error. There were 20 mice in the control group and 17 mice in the group to which the test compound was administered.

[2] = system: blood viscosity; test: Improvement in blood viscosity; assay type: in vivo, male Wistar rats; design: key to blood viscosity, shear rates without significant rise after ligation: for each shear rate where no significant rise in […] was noted (P<0.05) between the pre-ligation and post-ligation values there is printed a single plus sign (+); ++++: no significant difference in viscosity between the pre-ligation and post-ligation values at any of the four shear rates; conditions: for minimal effective dose: Rattus norvegicus, read-out: dose at which significant improvement (i.e. stabilisation) in blood viscosity was achieved
Protocol: The test animals were male Wistar rats; they were employed in groups of five for each test. The rats were anaesthetized with pentobartibal and simultaneously the test compound was administered orally at the dose specified in Table 5 in a carboxymethyl cellulose suspension. Promptly, an incision was made in the neck and a 0.5 ml blood sample was collected from the jugular vein. The viscosity of this sample was determined by means of a rotational viscometer.
Thirty minutes after oral administration, the common carotid artery was ligated bilaterally. One hour thereafter (i.e. 90 minutes after oral administration), a further 0.5 ml blood sample was collected from the jugular vein and its viscosity was determined in the same manner.
The mean blood viscosity of each test animal and its standard deviation were calculated for each of the four shear rates (37.5, 75, 150 and 375 s^-1) of the rotational viscometer. The pre-ligation and post-ligationvalues of each group (i.e. the change over a period of 60 minutes) were analysed by the statistical t-test. The results are reported in Table 5 as follows: for each shear rate where no significant rise in […] was noted (P<0.05) between the pre-ligation and post-ligation values there is printed a single plus sign (+). Thus, for example, if there was no significant difference in viscosity between the pre-ligation and post-ligation values at any of the four shear rates, the results will be ++++.

[3] = system: brain of rats with cerebral ischaemia; test: Effect on sugar and high energy phosphate metabolism in the brain of rats with cerebral ischaemia; assay type: in vivo, rat; conditions: 1 mg/kg or 10 mg/kg intraperitoneal
Protocol: Cerebral ischaemia was induced in rats and the sugar and high energy phosphate metabolism in the brain was investigated.
Both carotid arteries of the test rats were ligated and, at the same time, the compound under test was administered by intraperitoneal injection. The amounts of sugars and metabolic products thereof (glucose and lactic acid) and high energy phosphate (ATP-adenosine triphosphate) in the brain were determined by the method of Lowry and Passonneau (A flexible system of enzymatic analysis, Academic Press, New York, 1972). When Compound No. 131 was administered at levels of 1 mg/kg or 10 mg/kg, there was observed an increase in glucose levels, a decrease in lactic acid levels and an increase in ATP levels in the rats with cerebral ischaemia.

[4] = system: erythrocytes; test: Effect on recovery of erythrocyte flexibility reduced by acidosis; assay type: in vivo, rat; conditions: 50 mg/kg orally, blood pH 5.1, P < 0.05
Protocol: Mature male rats were employed in this experiment in groups of five for each test. The compound under test was suspended in an aqueous solution of carboxymethylcellulose and administered orally. Two hours after administration, the rats were anaesthetized with pentobarbital and a 5 ml blood sample was taken from the heart. Its pH was adjusted to 5.1 and the sample was allowed to stand. The fluidity of the erythrocytes was tested by a slightly modified version of the method reported in the Journal of Clinical Pathology, 29, 855-858 (1976). Control animals were treated similarly, except that the carboxymethylcellulose solution contained no active compound. The results are reported as the mean values for each group plus or minus the statistical error and the statistical significance was calculated by comparison with the control group.

[5] = system: anoxia-induced cerebral dysfunction; test: Promotion of recovery from anoxia-induced cerebral dysfunction (EEG recovery); assay type: in vivo, rat; conditions: breathing terminated 120 seconds
Protocol: In this experiment, the breathing of a rat was terminated for sufficient time for its EEG (electroencephalograph) trace to become flat and the time required for the EEG to show further activity after breathing had restarted was determined.
The rat was immobilized by the administration of pancuronium bromide, and its spontaneous EEG was recorded. After the rat had been roused from anaesthesia, the compound under test suspended in an aqueous solution of carboxymethylcellulose was administered intraperitoneally to the rat. Throughout the experiment, the rat was caused to breathe artificially; 30 minutes after administration of the test compound, artificial breathing was terminated for 120 seconds. After breathing again commenced, the time required for the EEG to recover (the recovery time) was determined.
A control experiment was carried out in which a carboxymethylcellulose suspension alone was administered with no active compound.
The recovery time is reported in the Table in seconds as the mean of the recovery times of all of the animals in the relevant test group plus or minus the statistical error.

[6] = system: cerebral blood flow; test: Improving cerebral blood flow; assay type: in vivo, rabbit; conditions: 10 mg/kg
Excerpt: The "duration (T1/2)" is the time in minutes required for the increase in cerebral blood flow to reduce by one half.

[7] = molecular target: cAMP PDE; test: Phosphodiesterase (PDE) inhibitory activity, cAMP substrate; assay type: biochemical, rat; conditions: for IC50: 0.14 μM 14C-labeled cAMP, pH 8.0, 30° C., 20 minutes, crude enzyme from rat brains, read-out: I50 cAMP PDE
Protocol: (§1) The test was carried out following essentially the method of A. L. Pichard and Y. U. Chung [Journal of Biological Chemistry, 251, 5726-5737 (1976)]. A crude enzymatic solution derived from rat brains was used as the source of cAMP PDE.
(§2) ^14 C-labeled cAMP was used as the substrate. It was employed in a 0.2M Tris-hydrochloric acid buffer solution (pH 8.0) in an amount sufficient to provide a final concentration of 0.14 μM. "Tris" is tris(hydroxymethyl)aminomethane. The substrate solution was mixed with an appropriate amount of the compound under test dissolved in 2-5 μl of dimethyl sulfoxide and with 20 μl of a snake venom solution and 40 μl of the crude enzyme solution. Sufficient Tris-hydrochloric acid buffer was added to make a total volume of 100 μl. The mixture was allowed to react at 30° C. for 20 minutes. At the end of this time, the reaction mixture was treated with an Amberlite (trade mark) IRP-58 resin and the level of residual adenosine radioactivity in the product was determined.

[8] = molecular target: cGMP PDE; test: Phosphodiesterase (PDE) inhibitory activity, cGMP substrate; assay type: biochemical; conditions: cGMP as substrate, crude enzyme from rat brains; read-out: I50 cGMP PDE
Protocol: as §1, §2
The experiment was repeated, except that cyclic guanosine monophosphate (cGMP) was employed as the substrate instead of cAMP. The I50 value against cGMP PDE was also calculated.

[9] = system: rats; test: Toxicity (mortality of male Fisher rats, daily doses for four days); assay type: in vivo, male rats of the Fisher strain; conditions: 100 mg/kg daily
Protocol: The compounds under test were griseolic acid and Compounds No. 26 and 51 from the list of compounds of the invention set out hereinabove. The test animals were male rats of the Fisher strain. The rats were employed in groups of five for each test.
The compounds under test were administered at single daily doses of 50 mg/kg or 100 mg/kg throughout the four days of the test.

## Nc1ncnc2c1ncn2C1OC23OC(C(=O)OC(c4ccccc4)c4ccccc4)C(C(=O)OC(c4ccccc4)c4ccccc4)(OC2C1O)C3Br (stereo not drawn) [Compound No. 202, dibenzhydryl 4',7'-anhydro-5'α-bromo-4'α-hydroxygriseolate]
[1]
  Recovery time, righting reflex: 20.9 ± 2.9 s
[1]; P < 0.05
  Recovery time, spontaneous locomotive activity: 72.8 ± 15.7 s
[2]; 10 mg/kg oral
  blood viscosity, shear rates without significant rise after ligation: +
[2]; oral, in words
  dose levels at which significant improvement (i.e. stabilisation) in blood viscosity was achieved: all dose levels

## O=C(Nc1ncnc2c1ncn2C1OC2=CC(C(=O)O)([C@@H](OC(=O)c3ccccc3)C(=O)O)OC2[C@H]1OC(=O)c1ccccc1)c1ccccc1 (stereo partly shown) [Compound No. 131, N^6,O^2',O^7' -tribenzoylgriseolic acid]
[3]
  ATP levels in brain: increase
  glucose levels in brain: increase
  lactic acid levels in brain: decrease
[2]; 30 mg/kg oral
  blood viscosity, shear rates without significant rise after ligation: +
[2]; 100 mg/kg oral
  blood viscosity, shear rates without significant rise after ligation: ++++
[2]; oral
  minimal effective dose: ≥ 30 mg/kg
[4]
  Total number of passing erythrocytes × 10^9: 3.30 ± 0.28 × 10^9
[5]; 10 mg/kg intraperitoneally, n=8
  Recovery time: 14.5 ± 1.2 s
[5]; 30 mg/kg intraperitoneally, n=8, P < 0.05
  Recovery time: 13.8 ± 1.3 s

## CC(=O)O[C@H](C(=O)O)C1(C(=O)O)C=C2OC(n3cnc4c(N)ncnc43)[C@H](O)C2O1 (stereo partly drawn) [Compound No. 141, 7'(S)-acetoxy-7'-deoxygriseolic acid]
[6]
  Duration (T 1/2): > 1 h
  Increase in cerebral blood flow (Vp), ratio to papaverine 1 mg/kg: 9.2
[7]
  IC50: 220 nM
[8]
  IC50: 1050 nM

## O=C(O)CC1(C(=O)O)C=C2OC(n3cnc4c(=O)[nH]cnc43)C(O)C2O1 (stereo not shown) [Compound No. 138, 6-desamino-7'-deoxy-6-hydroxygriseolic acid]
[6]
  Duration (T 1/2): > 1 h
  Increase in cerebral blood flow (Vp), ratio to papaverine 1 mg/kg: 5.5
[7]
  IC50: 140 nM
[8]
  IC50: 50 nM

## CC(=O)OC1C2OC(C(=O)OC(c3ccccc3)c3ccccc3)(C(OC(C)=O)C(=O)OC(c3ccccc3)c3ccccc3)C=C2OC1n1cnc2c(=O)[nH]cnc21 (stereo not shown) [Compound No. 71, dibenzhydryl O^2',O^7' -diacetyl-6-desamino-6-hydroxygriseolate]
[6]
  Duration (T 1/2): > 1 h
  Increase in cerebral blood flow (Vp), ratio to papaverine 1 mg/kg: 3.0
[4]
  Total number of passing erythrocytes × 10^9: 3.00 ± 0.16 × 10^9

## CCC(=O)Nc1ncnc2c1ncn2C1OC2=CC(C(=O)OC(c3ccccc3)c3ccccc3)(C(OC(=O)CC)C(=O)OC(c3ccccc3)c3ccccc3)OC2C1OC(=O)CC (stereo not shown) [Compound No. 10, dibenzhydryl N^6,O^2',O^7' -tripropionylgriseolate]
[2]; 30 mg/kg oral
  blood viscosity, shear rates without significant rise after ligation: ++++
[2]; 50 mg/kg oral
  blood viscosity, shear rates without significant rise after ligation: ++++
[2]; oral
  minimal effective dose: ≥ 50 mg/kg

## O=C(O)[C@H](O)C1(C(=O)O)C=C2OC(n3cnc4c(S)ncnc43)[C@H](O)C2O1 (stereo partly shown) [Compound No. 54, 6-desamino-6-mercaptogriseolic acid]
[7]
  IC50: 19000 nM
[2]; oral
  minimal effective dose: ≥ 50 mg/kg
[8]
  IC50: 9100 nM

## Nc1ncnc2c1ncn2C1OC2=CC(C(=O)O)([C@@H](O)C(=O)O)OC2[C@H]1O (stereo partly shown) [Griseolic acid, griseolic acid]
[9]; after day 3
  mortality after day 3: 3/5
[9]; first two days
  mortality for the first two days: 0/5
[9]; four days, male Fisher rats
  mortality at the end of the test: 3/5
[7]; in words
  ability to inhibit cAMP phosphodiesterase: has the ability to inhibit the activity of cyclic adenosine monophosphate (cAMP) phosphodiesterase (PDE)
